Data as given in patent publication US20200206198A1, “CFTR CHANNEL ACTIVATOR FOR USE IN THE TREATMENT AND/OR PREVENTION OF GLUTEN SENSITIVITY CONDITIONS” (priority 2017, published 2020).

Experiments:
[1] = tested on: NOD mice transgenic for HLA DQ8 (NOD-DQ8); test: NOD-DQ8 mice orally challenged with gliadin; assay type: in vivo, mouse
Text: (§1) In the second model of gluten sensitivity, the Applicant resorted to non-obese diabetic (NOD) female mice, which spontaneously develop autoimmune type-1 diabetes (Maurano, F., et al. 2005).
(§2) BALB/c mice (background BALB/cAnNCrl) were purchased from Charles River (Varese, Italy). Three generation gluten-free diet (Mucedola srl, Milan), male and female, were challenged with gliadin for 4 weeks. […]
(§3) Chambers for mounting either transwell cell cultures or mouse tissue biopsies were obtained from Physiologic Instruments (model P2300, San Diego, Calif., USA). […] Shortcircuit current (expressed as Isc (μA/cm2)) and resistance were acquired or calculated using the VCC600 transepithelial clamp from Physiologic Instruments and the Acquire & Analyze 2.3 software for data acquisition (Physiologic Instruments), as previously described Tosco A, et al. 2016; Romani, L. et al. 2017).
(§4) ELISA analysis was performed on tissue samples using standard ELISA kits (R&D Systems) for IL-15, IL-17A, INFγ IL21, IL10, TGF-β. […] Samples were read in triplicate at 450 nm in a Microplate Reader (BioRad, Milan, Italy) using Microplate Manager 5.2.1 software. Values were normalized to protein concentration evaluated by Bradford analysis. […]

[2] = tested on: non-obese diabetic (NOD) female mice; test: NOD mice orally challenged with gliadin; assay type: in vivo, mouse
Text: as §1, §2, §3, §4

[3] = tested on: TG2 / NBD1; test: Cell-free system with recombinant TG2, NBD1 and synthetic peptide (native PAGE); assay type: biochemical; conditions: Ca2+-activated TG2
Description: FIG. 5: a, Immunoprecipitation of TG2 protein 15 in Caco-2 cells challenged with P57-68, PGAV or P31-43 and blotted with HRP-streptavidin. b, Immunoprecipitation of CFTR protein in Caco-2 cells challenged with P31-43 in the presence of absence of the TG2 inhibitor ZDON or TG2 RNA silencing and 20 blotted with anti-isopeptide glutamime-lysine and anti-TG2 antibodies. c, Recombinant TG2 and/or NBD1 incubated in vitro with P31-43 and solved in native page in the presence or absence of Ca2+. d, Immunoprecipitation of CFTR protein and immunblot with anti-CFTR antibodies or anti-TG2 antibodies. e, Immunoprecipitation of CFTR protein and immunoblot with anti-TG2 or anti-CFTR antibodies; effects of ZDON and BAPTA-AM. f, In situ detection of TG2 activity in Caco-2 cells pulsed with Ca2+ in the presence or absence of VX-770 or Z-DON. Activity assay by immunoblotting of the TG-catalyzed incorporation of 5-biotinamidopentylamine (BAP) and blotting with anti-biotin antibody. g, In situ TG2 activity assay, by immunostaining of the TG-catalysed incorporation of monodansylcadaverin, on Caco-2 cells pre-incubated with VX-770 or Z-DON and then pulsed with P31-43. Scale bar 50 μm. h, Immunoprecipitation of PKAr2a protein and immunoblot with isopeptide glutamime-lysine antibody in Caco-2 cells challenged with P57-68 or P31-43 in the absence or presence of VX-770. (i,j). […]

Molecule	effect on gliadin-induced increase of IFN-γ [1]	immunoprotective effects (IL-15, IL-17A, IFN-γ protein) ([2]; NOD mice challenged with gliadin after diabetes onset)	effect on gliadin-induced reduction in CFTR function ([2]; NOD mice, VX-770 i.p.)	TG2-catalyzed covalent interaction with NBD1 [3]
CC(C)(C)c1cc(C(C)(C)C)c(NC(=O)c2c[nH]c3ccccc3c2=O)cc1O [VX-770, N-(2,4-di-tert-butyl-5-hydroxyphenyl)-4-oxo-1,4-dihydroquinoline-3-carboxamide]	counteracted the gliadin-induced increase of IFN-γ	immunoprotective effects of VX-770 were confirmed	inhibitable	–
α-gliadin peptide LGQQQPFPPQQPY (SEQ ID 1), induces an enterocyte stress response (P31-43 sequence of alpha-gliadin)	–	–	–	Ca2+-activated TG2 catalyzed covalent interactions between P31-43 and NBD1
